According to patent US11118204B2, “Switchable ionic liquids for biomass pretreatment and enzymatic hydrolysis” (National Technology & Engineering Solutions of Sandia, LLC, priority 2014, dated 2021):
“And” between values parts separate entries of the source, which are not always exact repeats. Equal entries are not always repeated. Values belong to the molecule of their own block, whether it stands above or below them.

Experiments:
Ctec2 = Ctec2 stability in ionic liquids (residual activity, T50^30); format: biochemical; conditions: for T50^30 (temperature at which enzyme activity is reduced by 50% following 30-minute pre-incubation): Ctec2 pre-incubated 38-80° C. in IL at 5-20%, substrates CMC, PNP-cellobiose, PNP-glucopyranoside, FIG. 1
Description: Enzyme stability was monitored by residual activity measurements. Ctec2 was diluted 200-fold into nine ionic liquid or buffer solutions at concentrations from 1-20 wt %. Each enzyme solution was then divided into 18 wells in a thin-walled PCR plate and incubated in thermal […] (Applied Biosystems, Veriti) at temperatures from 38-80° C. for 30 minutes. […] CMC reaction end-points were analyzed by DNS assay to detect reducing sugars. The end-points of the paranitrophenol reactions were measured by absorbance at 405 nm. […] Error was estimated by replication of both the incubation and activity measurement steps. Some solution conditions produced clearly bi-modal inactivation curves; in these cases the larger of the two transitions was reported. […] To capture the stability differences for several different enzyme classes in the multicomponent commercial enzyme mixture, the T50^30 was measured on three different representative substrates: carboxymethylcellulose (CMC), 4-Nitrophenyl β-D-glucopyranoside (PNP-glucopyranoside) and 4-Nitrophenyl β-D-cellobiose (PNP-cellobiose). […] In FIG. 1, data for acetate-based ionic liquids are shown in the left-hand panels: [Em][Ac] (open circle, solid line); [Ch][Ac] (closed circle, solid line); [Na][Ac], pH 5.2 at 25° C. (closed circle, dashed line). Data for glutamic acid-based ionic liquids are shown in the center panels: […] [Ch]2[Glu] (closed triangle, solid line); […] (open circle, dashed line). Data for succinic acid-based ionic liquids are shown in the right-hand panels: […] [Na][Sc], pH 5.2 at 25° C. (closed square, dashed line); […]

[1] = corn stover, 25 wt % ionic liquid
[2] = ionic liquid solution
[3] = Switchgrass pretreatment in ionic liquid and enzymatic hydrolysis (sugar conversion); conditions: for pretreatment efficiency on dilution of the ionic liquid: 120° C., 3 hrs, FIG. 2B; for biomass pretreatment effectiveness (sugar conversion): pretreatment in neat ionic liquid at 90 or 120° C., hydrolysis in 50 mM sodium succinate pH 5.2, FIG. 2A
Description: Putnam Switchgrass (20 mesh—2 mm particle size) was used as the biomass for all experiments. Samples used to determine the pretreatment and dilution efficiency were washed free of ionic liquid with de-ionized water, and re-suspended in 50 mM sodium succinate buffer at pH 5.2. All enzyme hydrolysis reactions were performed with shaking at 50° C. and 20 mg/g 9:1 Ctec2:Htec, unless otherwise specified. Small-scale, one-pot reactions were performed in 2 ml screw-cap vials in heating blocks without mixing with 100 mg biomass at the specified ionic liquid concentration and biomass loading. Reactions were then acidified with 1 eq. of the free acid in the same vial and transferred to shaker incubators for the enzymatic hydrolysis. Larger scale one-pot reactions were performed in glass pressure tubes (Ace Glass, USA) with 2 g or 4 g biomass (Table 1). Liberated glucose and xylose were quantified with an Agilent HPLC using a Bio-Rad Aminex […] column with a 4 mM sulfuric acid mobile phase.
Data for pretreatment at 90° C. and 120° C. is shown using white bars and black bars, respectively. […] (white bars), and dilution of the ionic liquid to 25% with water.
For the data in FIG. 2C, samples were pretreated at 90° C. or 120° C., with various % IL in the liquid fraction and different wt % biomass loadings. All samples were then hydrolyzed at 25% IL concentration with 9:1 Ctec2:Htec at 20 mg/g biomass. White bars, 90° C., 16 hrs; gray bars, 120° C., 3 hrs; black bars, 120° C., 16 hrs.
In FIG. 3A and FIG. 3B, the circles represent data obtained using 10 wt % ionic liquid and the squares represent data obtained using 25 wt % ionic liquid.

[4] = [Em][Ac] (20%) acidified with acetic acid to pH ~5

Molecule: C[N+](C)(C)CCO.C[N+](C)(C)CCO.N[C@@H](CCC(=O)[O-])C(=O)[O-] [[Ch]2[Glu], (choline)2 glutamate]
T50^30 (temperature at which enzyme activity is reduced by 50% following 30-minute pre-incubation) (Ctec2): lowest | CTec2 activity (Ctec2; at the lowest ionic liquid concentrations): very low | glucose yield [1]: ~95% | solution pH [2]: 10-11 | performance (glucose yield) relative to the neat ionic liquid ([3]; 25% solution, pretreatment 120° C., 16 hours, one-pot): ~90% | pretreatment efficiency on dilution of the ionic liquid [3]: consistently high pretreatment efficiency | biomass pretreatment effectiveness (sugar conversion) [3]: marked improvement

Molecule: C[N+](C)(C)CCO.C[N+](C)(C)CCO.O=C([O-])C(=O)[O-] [[Ch]2[oxalic acid], reference compound]
Glucose conversion ([3]; ionic liquid used neat): 48% | glucose conversion above hot water pretreatment ([3]; ionic liquid used neat): ~15%

Molecule: Choline succinate [[Ch][Sc]]
biomass pretreatment effectiveness (sugar conversion) [3]: poorly

Molecule: choline glutamate [[Ch][Glu]]
Glucose conversion ([3]; 10 wt % IL, 10% switchgrass, pretreatment at 120° C. with [Ch]2[Glu], one-pot hydrolysis with CTec2): 91% | Glucose conversion ([3]; 25 wt % IL, 10% switchgrass, pretreatment at 120° C. with [Ch]2[Glu], one-pot hydrolysis with CTec2): 82% | biomass pretreatment effectiveness (sugar conversion) [3]: poorly

Second part, led by results:

solution pH [2]: ~7
Molecule: C[N+](C)(C)CCO.C[N+](C)(C)CCO.O=C([O-])CCC(=O)[O-] [[Ch]2[Sc], (choline)2 succinate]
pretreatment efficiency on dilution of the ionic liquid [3]: monotonic decrease in efficiency | sugar release relative to [Ch][Glu] ([3]; pretreatment at 120° C.): twice as much sugar | biomass pretreatment effectiveness (sugar conversion) [3]: marked improvement

stability of the commercial enzyme mixture on CMC (Ctec2; [4]): slightly | stability of the commercial enzyme mixture on the para-nitrophenol substrates (Ctec2; [4]): decreased significantly
Molecule: CC(=O)[O-].CCn1cc[n+](C)c1 [[Em][Ac], 1-ethyl-3-methylimidazolium acetate]

T50^30 (temperature at which enzyme activity is reduced by 50% following 30-minute pre-incubation) (Ctec2): similarly low | solution pH [2]: ~14 and ~12
Molecule: Choline lysinate [[Ch][Lys], reference compound]
